The target in assay [1] is T1, Cbl (aa49-434) (Homo sapiens, UniProt P22681).
T1 construct: Cbl (aa49-434, in-house); made in house
T1 sequence (P22681 49-434): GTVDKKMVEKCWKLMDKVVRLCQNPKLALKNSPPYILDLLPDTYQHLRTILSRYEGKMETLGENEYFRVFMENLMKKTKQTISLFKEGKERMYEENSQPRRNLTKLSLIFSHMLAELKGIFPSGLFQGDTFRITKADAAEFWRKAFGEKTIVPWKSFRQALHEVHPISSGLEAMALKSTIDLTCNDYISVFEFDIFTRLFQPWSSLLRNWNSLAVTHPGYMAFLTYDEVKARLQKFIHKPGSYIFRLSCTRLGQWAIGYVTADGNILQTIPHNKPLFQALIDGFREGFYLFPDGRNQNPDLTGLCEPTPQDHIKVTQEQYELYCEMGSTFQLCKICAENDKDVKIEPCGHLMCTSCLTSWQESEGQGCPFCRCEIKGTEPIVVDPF
The assay can be described thus: Co-expressed Cbl with BirA biochemical assay (CBL/E2-Ub binding, HTRF). As to conditions: 0.6 nM Cbl co-expressed with BirA, read-out: co-express CBL/E2-Ub-binding assay IC50. The source says:
(§1) The assay in the absence of a Cbl-b/Cbl inhibitor, where phosphorylation of Cbl-b/Cbl by the Src kinase allows UbcH5B-Ub to bind to Cbl-b/Cbl and brings the Bodipy-Fluorescein tagged ubiquitin in proximity to the streptavidin-terbium bound to the N-terminal biotinylated Avi-tagged Cbl-b/Cbl. […] The lack of a FRET signal indicates Cbl-b/Cbl is inhibited by the Cbl-b/Cbl inhibitor.

In assay [2] the target is T2, Cbl-b (aa36-427) (Homo sapiens, UniProt Q13191).
T2 construct: Cbl-b (aa36-427, in-house); made in house
Put plainly: Co-expressed Cbl-b with BirA biochemical assay (CBLB/E2-Ub binding, HTRF). The note with it: 0.6 nM Cbl-b co-expressed with BirA, HTRF; read-out: co-express CBLB/E2-Ub-binding assay IC50.
Text: as §1
(Time-resolved FRET reads energy transfer from a long-lived donor to a nearby acceptor.)

Each structure is given as a SMILES string.

T2 sequence (Q13191 36-427): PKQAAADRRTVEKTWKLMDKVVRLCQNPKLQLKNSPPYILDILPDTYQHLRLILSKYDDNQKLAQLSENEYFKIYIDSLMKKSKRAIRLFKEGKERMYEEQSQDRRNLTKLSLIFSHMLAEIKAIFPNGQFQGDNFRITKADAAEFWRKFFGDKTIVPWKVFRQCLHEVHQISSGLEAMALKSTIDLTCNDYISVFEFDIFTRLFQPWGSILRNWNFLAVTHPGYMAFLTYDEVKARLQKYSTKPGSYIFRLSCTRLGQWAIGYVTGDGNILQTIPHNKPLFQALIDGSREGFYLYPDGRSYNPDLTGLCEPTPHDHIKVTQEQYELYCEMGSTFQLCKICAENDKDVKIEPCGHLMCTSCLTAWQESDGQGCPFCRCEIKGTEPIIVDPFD

As to `Cn1cnnc1[C@]1(c2cccc(NC(=O)c3cc(CNCC4CCCC4)cn4c(Cl)cnc34)c2)C[C@H](C)C1` [Compound A68, 3-chloro-6-(((cyclopentylmethyl)amino)methyl)-N-(3-((1s, 3s)-3-methyl-1-(4-methyl-4H-1,2,4-triazol-3-yl)cyclobutyl)phenyl)imidazo[1,2-a]pyridine-8-carboxamide], the IC50 came to 2.9 nM in assay [1] and 0.9 nM in assay [2].

`Cn1cnnc1[C@]1(c2cccc(NC(=O)c3cc(CNCC4(C)CCC4)c4c(n3)C(C)(C)CC4)c2)C[C@H](CC#N)C1` [Compound C37, N-(3-((1s, 3s)-3-(cyanomethyl)-1-(4-methyl-4H-1,2,4-triazol-3-yl)cyclobutyl)phenyl)-7,7-dimethyl-4-((((1-methylcyclobutyl)methyl)amino)methyl)-6,7-dihydro-5H-cyclopenta[b]pyridine-2-carboxamide]: the values for the IC50 in assay [1] and in assay [2] were 2.4 nM and 0.9 nM, respectively.

With `Cn1cnnc1[C@]1(c2cccc(NC(=O)c3cc(CNC4(C)CC4)cc4c(F)cnn34)c2)C[C@H](C)C1` [Compound A92, 3-fluoro-N-(3-((1s, 3s)-3-methyl-1-(4-methyl-4H-1,2,4-triazol-3-yl)cyclobutyl)phenyl)-5-(((1-methylcyclopropyl)amino)methyl)pyrazolo[1,5-a]pyridine-7-carboxamide], the IC50 was 2.5 nM in assay [1] and 0.4 nM in assay [2].

Turning to `Cn1cnnc1[C@]1(c2cccc(NC(=O)c3cc(CNC4(C)CC4)cc4ccnn34)c2)C[C@H](C)C1` [Compound A91, N-(3-((1s, 3s)-3-methyl-1-(4-methyl-4H-1,2,4-triazol-3-yl)cyclobutyl)phenyl)-5-(((1-methylcyclopropyl)amino)methyl)pyrazolo[1,5-a]pyridine-7-carboxamide], the IC50 in assay [1] was determined as 4.1 nM; in assay [2], 0.6 nM.

`Cn1cnnc1C[C@]1(c2cccc(NC(=O)c3cc(CNCC4(C)CCCC4)c4[nH]ccc4n3)c2)C[C@H](C#N)C1` [Compound B23, N-(3-((1r, 3r)-3-cyano-1-((4-methyl-4H-1,2,4-triazol-3-yl)methyl)cyclobutyl)phenyl)-7-((((1-methylcyclopentyl)methyl)amino)methyl)-1H-pyrrolo[3,2-b]pyridine-5-carboxamide]: the IC50 came to 8.8 nM in assay [1] and 3.6 nM in assay [2].

Take `C[C@H]1CCCN(Cc2cc(C(=O)Nc3cccc([C@]4(c5nncn5C)C[C@@H](CC#N)C4)c3)nc3c(F)c[nH]c23)C1` [Compound B11, N-(3-((1s,3R)-3-(cyanomethyl)-1-(4-methyl-4H-1,2,4-triazol-3-yl)cyclobutyl)phenyl)-3-fluoro-7-(((S)-3-methylpiperidin-1-yl)methyl)-1H-pyrrolo[3,2-b]pyridine-5-carboxamide]: the IC50 was 14.2 nM in assay [1] and 1.3 nM in assay [2].

With `C[C@H](NCc1cc(C(=O)Nc2cncc([C@]3(c4nncn4C)C[C@@H](C)C3)c2)c2ncc(Cl)n2c1)C1CC1` [Compound A77, 3-chloro-6-((((S)-1-cyclopropylethyl)amino)methyl)-N-(5-((1s,3R)-3-methyl-1-(4-methyl-4H-1,2,4-triazol-3-yl)cyclobutyl)pyridin-3-yl)imidazo[1,2-a]pyridine-8-carboxamide], the IC50 in assay [1] was 1.2 nM; in assay [2], 0.4 nM.

In the case of `C[C@H](NCc1cc(C(=O)Nc2cccc([C@]3(c4nncn4C)C[C@@H](C)C3)c2)c2nccn2c1)C1CCC1` [Compound A70, 6-((((S)-1-cyclobutylethyl)amino)methyl)-N-(3-((1s,3R)-3-methyl-1-(4-methyl-4H-1,2,4-triazol-3-yl)cyclobutyl)phenyl)imidazo[1,2-a]pyridine-8-carboxamide], the IC50 in assay [1] is 4.1 nM; in assay [2], 1.1 nM.

On to `Cn1cnnc1[C@]1(c2cncc(NC(=O)c3cc(CNC4(C)CCC4)c4[nH]cc(F)c4n3)c2)C[C@H](C)C1` [Compound B49, 3-fluoro-N-(5-((1s, 3s)-3-methyl-1-(4-methyl-4H-1,2,4-triazol-3-yl)cyclobutyl)pyridin-3-yl)-7-(((1-methylcyclobutyl)amino)methyl)-1H-pyrrolo[3,2-b]pyridine-5-carboxamide], for which the IC50 was 14 nM in assay [1] and 3.2 nM in assay [2].

`C[C@H]1CCCN(Cc2cc(C(=O)Nc3cccc([C@]4(Cc5nncn5C)C[C@H](C#N)C4)c3)nc3c2CCC3(C)C)C1` [Compound C18, N-(3-((1s,3R)-3-cyano-1-((4-methyl-4H-1,2,4-triazol-3-yl)methyl)cyclobutyl)phenyl)-7,7-dimethyl-4-(((S)-3-methylpiperidin-1-yl)methyl)-6,7-dihydro-5H-cyclopenta[b]pyridine-2-carboxamide]: the IC50 turned out to be 3.1 nM in assay [1] and 1.4 nM in assay [2].

In the case of `Cn1cnnc1[C@]1(c2cccc(NC(=O)c3cc(CNC4(C)CCC4)cn4c(F)cnc34)c2)C[C@H](C)C1` [Compound A44, 3-fluoro-N-(3-((1s, 3s)-3-methyl-1-(4-methyl-4H-1,2,4-triazol-3-yl)cyclobutyl)phenyl)-6-(((1-methylcyclobutyl)amino)methyl)imidazo[1,2-a]pyridine-8-carboxamide], the IC50 in assay [1] stood at 7.7 nM; in assay [2], 1.8 nM.

In the case of `C[C@H](NCc1cc(C(=O)Nc2cccc([C@]3(Cc4nncn4C)C[C@@H](C#N)C3)c2)c2nccn2c1)C1CCCC1` [Compound A33, N-(3-((1r,3S)-3-cyano-1-((4-methyl-4H-1,2,4-triazol-3-yl)methyl)cyclobutyl)phenyl)-6-((((S)-1-cyclopentylethyl)amino)methyl)imidazo[1,2-a]pyridine-8-carboxamide], the IC50 in assay [1] worked out at 1.1 nM; in assay [2], 1.5 nM.

For the compound `C[C@@H]1CN(Cc2cc(C(=O)Nc3cccc([C@]4(c5nncn5C)C[C@@H](CC#N)C4)c3)nc3cc[nH]c23)C[C@H](C)C1(F)F` [Compound B19, N-(3-((1s,3S)-3-(cyanomethyl)-1-(4-methyl-4H-1,2,4-triazol-3-yl)cyclobutyl)phenyl)-7-(((3R,5S)-4,4-difluoro-3,5-dimethylpiperidin-1-yl)methyl)-1H-pyrrolo[3,2-b]pyridine-5-carboxamide], the IC50 in assay [1] came to 77.7 nM; in assay [2], 10.3 nM.

`C[C@@H]1CN(Cc2cc(C(=O)Nc3cccc([C@]4(c5nncn5C)C[C@@H](C)C4)c3)nc3c2NCC32CC2)CC[C@@H]1F` [Compound C50, 7′-(((3R,4S)-4-fluoro-3-methylpiperidin-1-yl)methyl)-N-(3-((1s,3S)-3-methyl-1-(4-methyl-4H-1,2,4-triazol-3-yl)cyclobutyl)phenyl)-1′,2′-dihydrospiro[cyclopropane-1,3′-pyrrolo[3,2-b]pyridine]-5′-carboxamide]: the figures for the IC50 in assay [1] and in assay [2] were 0.8 nM and 0.7 nM, respectively.

Regarding `Cc1cnc2c(C(=O)Nc3cncc([C@]4(c5nncn5C)C[C@@H](C)C4)c3)cc(CNC3(C)CCC3)cn12` [Compound A80, 3-methyl-N-(5-((1s, 3s)-3-methyl-1-(4-methyl-4H-1,2,4-triazol-3-yl)cyclobutyl)pyridin-3-yl)-6-(((1-methylcyclobutyl)amino)methyl)imidazo[1,2-a]pyridine-8-carboxamide], the IC50 in assay [1] came out at 13 nM; in assay [2], 2 nM.

As to `Cn1cnnc1[C@]1(c2cncc(NC(=O)c3cc(CNC4(C)CCC4)c4[nH]ccc4n3)c2)C[C@H](C)C1` [Compound B50, N-(5-((1s, 3s)-3-methyl-1-(4-methyl-4H-1,2,4-triazol-3-yl)cyclobutyl)pyridin-3-yl)-7-(((1-methylcyclobutyl)amino)methyl)-1H-pyrrolo[3,2-b]pyridine-5-carboxamide], the IC50 in assay [1] was determined as 9.3 nM; in assay [2], 1.5 nM.

Regarding `C[C@H]1CCCN(Cc2cc(C(=O)Nc3cccc([C@]4(c5nncn5C)C[C@@H](C)C4)c3)nn3cccc23)C1` [Compound B13, 4-{[(3S)-3-methylpiperidin-1-yl]methyl}-N-{3-[(1r, 3s)-3-methyl-1-(4-methyl-1,2,4-triazol-3-yl)cyclobutyl]phenyl}pyrrolo[1,2-b]pyridazine-2-carboxamide], the IC50 in assay [1] was found to be 89.1 nM; in assay [2], 30.5 nM.

As for `C[C@H](NCc1cc(C(=O)Nc2cccc([C@]3(c4nncn4C)C[C@@H](CC#N)C3)c2)c2ncc(Cl)n2c1)C1CCCC1` [Compound A34, 3-chloro-N-(3-((1s,3R)-3-(cyanomethyl)-1-(4-methyl-4H-1,2,4-triazol-3-yl)cyclobutyl)phenyl)-6-((((S)-1-cyclopentylethyl)amino)methyl)imidazo[1,2-a]pyridine-8-carboxamide], the IC50 in assay [1] turned out to be 7.8 nM; in assay [2], 2.6 nM.

`Cn1cnnc1[C@]1(c2cncc(NC(=O)c3cc(CNCC4CCC4)c4c(n3)C(C)(C)CC4)c2)C[C@H](C)C1` [Compound C29, 4-(((cyclobutylmethyl)amino)methyl)-7,7-dimethyl-N-(5-((1s, 3s)-3-methyl-1-(4-methyl-4H-1,2,4-triazol-3-yl)cyclobutyl)pyridin-3-yl)-6,7-dihydro-5H-cyclopenta[b]pyridine-2-carboxamide]: the IC50 was 9.6 nM in assay [1] and 4.2 nM in assay [2].
